The text below walks through data of patent publication US11154519B2, “Inhibitors and their uses” (MEDICAL RESEARCH COUNCIL, priority 2015, dated 2021).

For data set [1], the system named is HeLa cells. In words: Cytoprotection against ER stress (tunicamycin), IncuCyte. It counts as cell-based. The settings on record: Homo sapiens, 250 ng/ml Tunicamycin, 72 hours, compound 0-20 μM, read-out: Cytoprotection from Tm (compared to GNB). Here is the method: (§1) HeLa cells (40,000 cells/ml) were plated in a 96-well plate and treated with different concentrations (0-20 μM) of a compound as indicated in the presence of 250 ng/ml Tunicamycin for 72 hours. To monitor cell death 1/2000 dilution of the CellTox green dye (Promega) was added to the media. The growth of the cells was monitored over time and pictures taken every 2 hours with the IncuCyte ZOOM system and analysed by the IncuCyte ZOOM software (Essen BioScience). […] Cytoprotection against ER stress can be measured by a suitable assay. In this instance, cytoprotection was measured in HeLa cells in which ER stress was elicited by the addition of media containing tunicamycin, a drug that blocks N-glycosylation, thereby preventing protein folding and inducing the unfolded protein response. Cell viability was then detected in the presence and absence of a compound listed in Table 1 after a set period of time, by monitoring cell growth over time. Cytoprotection from ER stress was measured in terms of the percentage increase in viable cells (relative to control) after ER stress.

In data set [2] the test system is HeLa cells. As to the kind of experiment: Cell death dose response (CellTox green, IncuCyte). The data set is classed as cell-based. Here is the method: Toxicity of the compounds is assessed using Cell viability Counting Kit-8 (Dojindo) or in a Incucyte (Essenbioscience) using both phase contrast and IncuCyte™ Cytotox Green Reagent.
as §1
EC50 were extrapolated from dose response experiments on cell death. Data from IncuCyte was plotted and analysed in Prism. The “% of cell death” for each data point. For each concentration there is a % of cell death vs time, the area under the curve was taken and plotted against log conc=>EC50 (analysis in Prism).

For the next data set, the system named is protein synthesis. In words: Assessment of translation rates (35S-methionine labelling). It counts as cell-based. On the procedure:
Cells (90,000 cells/ml) were plated in 12-well plates, treated as indicated, labelled with 100 μCi/mI 35S-methionine (Hartmann Analytic) for 10 minutes at 37° C., washed with ice-cold PBS and lysed in 120 μl Laemmli Buffer. Lysates were boiled at 95° C. for 5 minutes, sonicated and resolved on 4-12% Bolt Bis-Tris Plus Gels (Thermo Fisher Scientific). Gels were then stained with InstantBlue (Expedeon) and analyzed by phosphorimaging and quantified using ImageJ.
By monitoring translation rates as described above, the activities of R15A, R15B and R15A/B inhibitors can be defined as follows (also shown in FIG. 12). An R15A inhibitor has no effect on translation in unstressed cells but prolongs translation attenuation following stress. A selective R15B inhibitor transiently attenuate protein synthesis because R15A compensates for the inhibition of R15B.

Another data set deals with eIF2α phosphorylation. As to the kind of experiment: Assay 2: eIF2α phosphorylation in cells in the absence of stress. The settings on record: human cells. The data set is classed as cell-based. Here is the method:
HeLa cells were cultured in Dulbecco's Modified Eagle's Media (DMEM) supplemented with penicillin, streptomycin, containing 5% and 10% fetal bovine serum (FBS), respectively. MEF cells were cultured in DMEM supplemented with penicillin, streptomycin, glutamine, 55 μM β-mercaptoethanol, 1× non-essential amino acids (Sigma-Adrich) and 10% FBS. Where indicated, cells were treated with 2.5 μg/ml tunicamycin, 1 mM DTT (Sigma-Adrich) and or the indicated compounds at the indicated concentrations.
(§2) For immunoblots, HeLa cells (80,000 cells/ml) were plated in 12-well plates 24 hours before each experiment. Immediately after the indicated treatments, cells were lysed in 75 μl Laemmli Buffer, boiled at 95° C. for 5 minutes and sonicated. Proteins were separated and analysed as described (Tsaytler et al., Science, 332, 91-94, 2011) with the following antibodies: phospho-elf2α [pS52] and PPP1R15A/GADD34 (10449-1-AP; ProteinTech Group, 1/1000 dilution) and ATF4 (Sc-200 Santa Cruz).
Human cells were treated with a PPP1R15B inhibitor and eIF2α phosphorylation was monitored over time. […] This was manifested between 1 and 7.5 hours after addition of the compound of Example 1. […] Indeed, the inventors noticed that PPP1R15A was induced at the late time points following addition of the compound of Example 1 (see Assay 3). […] Furthermore, this establishes that the compound of Example 1 spares PPP1R15A. […]

For a further data set, the system named is PPP1R15A. As to the kind of experiment: Assay 3: expression of PPP1R15A in cells. It counts as cell-based, human. To be noted: late time points after addition, FIG. 2B. On the procedure: as §2
Cells and organisms usually have mechanisms to compensate for deficiencies. The inventors therefore considered whether cells might compensate for PPP1R15B inhibition by inducing PPP1R15A. It has been previously reported that PPP1R15A levels are increased in the liver of PPP1R15B knock-out mice (Harding et al., Proc. Natl. Acad. Sci. U.S.A., 106, 1832-1837, 2009). It is unknown whether this compensatory response is specific to the liver or if it can happen in cells or other tissues. Furthermore, prior to this study, it was unknown whether PPP1R15A induction can be observed upon pharmacological inhibition of PPP1R15B, as they were no selective inhibitors of PPP1R15B prior to this study.

Data set [3] is described as follows: Tissue distribution in mice after oral gavage. The data set is classed as in vivo. To be noted: plasma, brain, spinal cord, pancreas, liver.
The subject of a further data set is HD-N171-82Q mice. In words: Huntington's disease mouse model, motor performance (rotarod). It counts as in vivo. The settings on record: 2 mg/kg oral daily, 4 weeks. On the procedure: To assess the efficacy of a compound of Example 1 in ameliorating a disease phenotype, 28-day old transgenic mice or littermate control were orally administered daily with a compound of Example 1 (2 mg/kg) or vehicle for a duration of 4 weeks. Disease progression was evaluated by weighting the mice during the treatment and by assessing their motor performances after 4 weeks of treatment.
Eight weeks old HD-N171-82Q mice and their wild-type littermates were first habituated for 1 min on a static rotor and 1 min at constant speed (4 rpm). Habituation was repeated. The test session consisted of four trials with 15 min intervals in between. For each trial 5 mice were placed on an accelerating rotor (4 to 40 rpm) and the latency to fall was recorded, with a maximum limit for individual animal set at 300 s.
Increasing folding by inhibition of PPP1R15B has the potential to benefit a very broad range of human pathologies. To test this, the inventors looked at Huntington's disease (HD), a proteostasis disease caused by accumulation of a misfolded protein, mutant Huntingtin. […] As HD has no cure to date, the inventors tested whether HD could be prevented by PPP1R15B inhibition.

In general, EC50 refers to the concentration at which the effect is half-maximal. For `[H]/N=C(\N)NN=Cc1cccc(Cl)c1Cl` [Compound 16, (E)-2-(2,3-dichlorobenzylidene)hydrazine-1-carboximidamide], the Emax in the data set on HeLa cells [1] is 92%. The EC50 in the data set with HeLa cells [2] (Homo sapiens, area under % cell death vs time curve against log conc, read-out: Effect on cell death ⇒ EC50) stood at 20.8 µM. Besides, the “Effect on cell death” value in the data set on HeLa cells [2] (IncuCyte, 0-20 μM) is “Yes”. For the same compound, in the data set with protein synthesis (35S-methionine labelling of cells), the Effect on translation result is listed as “Transient”. In the data set with protein synthesis (unstressed cells, 10 μM, FIG. 12), the protein synthesis rates entry was “transiently inhibits protein synthesis in unstressed cells”. The eIF2α phosphorylation entry with eIF2α phosphorylation (10 hours after addition) is given as “returned to basal levels”; in the data set with eIF2α phosphorylation (between 1 and 7.5 hours after addition) it was “induced eIF2α phosphorylation”. Moreover, the “expression of PPP1R15A in cells” value in the data set on PPP1R15A was “induce PPP1R15A”. In addition, in data set [3], the tissue distribution result was “extensive tissue distribution”. Also, the motor performances result in the data set on HD-N171-82Q mice is “prevented the motor performances impairment”.
